Results reported in publication PMC5218480 (PLoS ONE, 2017).

System: MV-4-11 cells
Assay: Gene expression microarray analysis (Affymetrix PrimeView) and GSEA
Type: cell-based, human
Parameters: RFU PODN (11730768_x_at) / Fold change /veh PODN (11730768_x_at) / RFU LINC00158 (11744669_a_at) / Fold change /veh LINC00158 (11744669_a_at) / RFU DUSP10 (11751237_a_at) / Fold change /veh DUSP10 (11751237_a_at) / RFU ID3 (11757404_x_at) / Fold change /veh ID3 (11757404_x_at) / RFU PLEKHG5 (11737974_s_at) / Fold change /veh PLEKHG5 (11737974_s_at) / RFU LRRC4B (11730491_at) / Fold change /veh LRRC4B (11730491_at) / RFU GIMAP4 (11747438_a_at) / Fold change /veh GIMAP4 (11747438_a_at) / RFU KRT8 (11758183_x_at) / Fold change /veh KRT8 (11758183_x_at) / RFU CNN1 (11734310_a_at) / Fold change /veh CNN1 (11734310_a_at) / RFU VPS37D (11726825_at) / Fold change /veh VPS37D (11726825_at) / RFU C10orf10 (11716522_x_at) / Fold change /veh C10orf10 (11716522_x_at) / RFU KIR2DL2 /// KIR2DL4 /// KIR2DL5A /// KIR2DL5B /// KIR2DS1 /// KIR2DS2 /// KIR2DS3 /// KIR2DS4 /// KIR3DL3 /// KIR3DL3 /// KIR3DS1 (11738374_at) / Fold change /veh KIR2DL2 /// KIR2DL4 /// KIR2DL5A /// KIR2DL5B /// KIR2DS1 /// KIR2DS2 /// KIR2DS3 /// KIR2DS4 /// KIR3DL3 /// KIR3DL3 /// KIR3DS1 (11738374_at) / RFU C1QL1 (11718748_at) / Fold change /veh C1QL1 (11718748_at) / RFU TMPRSS4 (11747572_a_at) / Fold change /veh TMPRSS4 (11747572_a_at) / RFU HAMP (11756126_x_at) / Fold change /veh HAMP (11756126_x_at) / RFU RNFT2 (11725882_a_at) / Fold change /veh RNFT2 (11725882_a_at) / RFU NR4A2 (11747474_a_at) / Fold change /veh NR4A2 (11747474_a_at) / RFU ABCC12 (11746883_a_at) / Fold change /veh ABCC12 (11746883_a_at) / RFU TMEM136 (11760407_x_at) / Fold change /veh TMEM136 (11760407_x_at) / RFU CLDN22 /// WWC2 (11732394_at) / Fold change /veh CLDN22 /// WWC2 (11732394_at) / RFU HLA-DPB1 (11760878_x_at) / Fold change /veh HLA-DPB1 (11760878_x_at) / RFU SPINT1 (11716480_a_at) / Fold change /veh SPINT1 (11716480_a_at) / RFU GAP43 (11754022_s_at) / Fold change /veh GAP43 (11754022_s_at) / RFU A4GNT (11735810_at) / Fold change /veh A4GNT (11735810_at) / RFU PRB3 (11715151_x_at) / Fold change /veh PRB3 (11715151_x_at) / RFU TUBB4B (11761932_at) / Fold change /veh TUBB4B (11761932_at) / RFU CAPN14 (11732068_a_at) / Fold change /veh CAPN14 (11732068_a_at) / RFU TMCC2 (11721928_a_at) / Fold change /veh TMCC2 (11721928_a_at) / RFU IRGQ (11745062_a_at) / Fold change /veh IRGQ (11745062_a_at) / RFU FAM174B (11720279_a_at) / Fold change /veh FAM174B (11720279_a_at) / RFU TMPRSS4 (11748680_a_at) / Fold change /veh TMPRSS4 (11748680_a_at) / RFU FAM212B (11763350_a_at) / Fold change /veh FAM212B (11763350_a_at) / RFU PLEKHG5 (11743358_a_at) / Fold change /veh PLEKHG5 (11743358_a_at) / RFU ZSCAN30 (11745921_a_at) / Fold change /veh ZSCAN30 (11745921_a_at) / RFU CMKLR1 (11741424_a_at) / Fold change /veh CMKLR1 (11741424_a_at) / RFU LOC101060620 /// MAPK8IP1 (11723275_at) / Fold change /veh LOC101060620 /// MAPK8IP1 (11723275_at) / RFU SPTSSB (11747773_x_at) / Fold change /veh SPTSSB (11747773_x_at) / RFU PRSS12 (11739890_at) / Fold change /veh PRSS12 (11739890_at) / RFU BIN1 (11741810_x_at) / Fold change /veh BIN1 (11741810_x_at) / RFU WNT11 (11732464_a_at) / Fold change /veh WNT11 (11732464_a_at) / RFU C10orf10 (11716521_a_at) / Fold change /veh C10orf10 (11716521_a_at) / RFU C5orf56 (11738089_at) / Fold change /veh C5orf56 (11738089_at) / RFU CYB561 (11721691_x_at) / Fold change /veh CYB561 (11721691_x_at) / RFU ANKRD19P (11752326_a_at) / Fold change /veh ANKRD19P (11752326_a_at) / RFU OR2T12 /// OR2T33 /// OR2T8 (11738714_s_at) / Fold change /veh OR2T12 /// OR2T33 /// OR2T8 (11738714_s_at) / RFU VCAN (11748164_a_at) / Fold change /veh VCAN (11748164_a_at) / RFU JSRP1 (11732532_at) / Fold change /veh JSRP1 (11732532_at) / RFU KRTAP10-11 (11738290_x_at) / Fold change /veh KRTAP10-11 (11738290_x_at) / RFU MYO3A (11730013_a_at) / Fold change /veh MYO3A (11730013_a_at) / RFU EBF3 (11725865_a_at) / Fold change /veh EBF3 (11725865_a_at) / RFU CAMK2N1 (11719241_x_at) / Fold change /veh CAMK2N1 (11719241_x_at) / RFU C5orf56 (11738088_a_at) / Fold change /veh C5orf56 (11738088_a_at) / RFU OLFML3 (11715873_a_at) / Fold change /veh OLFML3 (11715873_a_at) / RFU LOC100653217 /// NTM (11731650_a_at) / Fold change /veh LOC100653217 /// NTM (11731650_a_at) / RFU MAPK11 (11762145_a_at) / Fold change /veh MAPK11 (11762145_a_at) / RFU FIZ1 (11724087_x_at) / Fold change /veh FIZ1 (11724087_x_at) / RFU OASL (11726364_x_at) / Fold change /veh OASL (11726364_x_at) / RFU SOX15 (11748057_x_at) / Fold change /veh SOX15 (11748057_x_at) / RFU CD79A (11719716_a_at) / Fold change /veh CD79A (11719716_a_at) / RFU HIST1H1D (11736915_at) / Fold change /veh HIST1H1D (11736915_at) / RFU CASKIN2 (11723855_a_at) / Fold change /veh CASKIN2 (11723855_a_at) / RFU LOC730098 (11760151_x_at) / Fold change /veh LOC730098 (11760151_x_at) / RFU OR4N2 (11742367_at) / Fold change /veh OR4N2 (11742367_at) / RFU PRRT2 (11749266_a_at) / Fold change /veh PRRT2 (11749266_a_at) / RFU SNX32 (11753110_a_at) / Fold change /veh SNX32 (11753110_a_at) / RFU CDHR5 (11726645_a_at) / Fold change /veh CDHR5 (11726645_a_at) / RFU RCAN1 (11760418_a_at) / Fold change /veh RCAN1 (11760418_a_at) / RFU FAM167A (11723789_a_at) / Fold change /veh FAM167A (11723789_a_at) / RFU FAM26E (11764081_at) / Fold change /veh FAM26E (11764081_at) / RFU ISYNA1 (11749810_s_at) / Fold change /veh ISYNA1 (11749810_s_at) / RFU ACY1 (11761880_at) / Fold change /veh ACY1 (11761880_at) / RFU 11764098_at / Fold change /veh 11764098_at / RFU SAMD14 (11745864_x_at) / Fold change /veh SAMD14 (11745864_x_at) / RFU NPB (11741838_a_at) / Fold change /veh NPB (11741838_a_at) / RFU TMPRSS6 (11731388_a_at) / Fold change /veh TMPRSS6 (11731388_a_at) / RFU KRTAP10-2 (11738614_at) / Fold change /veh KRTAP10-2 (11738614_at) / RFU ARHGAP8 /// PRR5-ARHGAP8 (11727945_x_at) / Fold change /veh ARHGAP8 /// PRR5-ARHGAP8 (11727945_x_at) / RFU KRTAP5-7 /// NADSYN1 (11734609_at) / Fold change /veh KRTAP5-7 /// NADSYN1 (11734609_at) / RFU RASL12 (11751679_a_at) / Fold change /veh RASL12 (11751679_a_at) / RFU CDKN2B (11736163_a_at) / Fold change /veh CDKN2B (11736163_a_at) / RFU PRF1 (11729649_at) / Fold change /veh PRF1 (11729649_at) / RFU, ZNF638 /// ZNF638-IT1 / Fold change vs veh, ZNF638 /// ZNF638-IT1 / RFU, PANK3 / Fold change vs veh, PANK3 / RFU, SH3YL1 / Fold change vs veh, SH3YL1 / RFU, ZEB2 / Fold change vs veh, ZEB2 / RFU, NRIP1 / Fold change vs veh, NRIP1 / RFU, PTTG1IP / Fold change vs veh, PTTG1IP / RFU, CAPN2 / Fold change vs veh, CAPN2 / RFU, MED14 / Fold change vs veh, MED14 / RFU, SNORA58 / Fold change vs veh, SNORA58 / RFU, C1orf63 / Fold change vs veh, C1orf63 / RFU, LRRFIP1 / Fold change vs veh, LRRFIP1 / RFU, NDUFAF7 / Fold change vs veh, NDUFAF7 / RFU, SLC12A2 / Fold change vs veh, SLC12A2 / RFU, IBTK / Fold change vs veh, IBTK / RFU, ESF1 / Fold change vs veh, ESF1 / Fold change vs veh, TMEM50B / RFU, TAOK1 / Fold change vs veh, TAOK1 / RFU, ACBD3 / Fold change vs veh, ACBD3 / RFU, TMA16 / Fold change vs veh, TMA16 / RFU, RWDD3 / Fold change vs veh, RWDD3 / RFU, BCAT1 / Fold change vs veh, BCAT1 / RFU, EDEM3 / Fold change vs veh, EDEM3 / RFU, TMEM33 / Fold change vs veh, TMEM33 / RFU, WDR75 / Fold change vs veh, WDR75 / RFU, AHCTF1 / Fold change vs veh, AHCTF1 / RFU, TFRC / Fold change vs veh, TFRC / RFU, ZDHHC17 / Fold change vs veh, ZDHHC17 / RFU, NOM1 / Fold change vs veh, NOM1 / RFU, ARL8B / Fold change vs veh, ARL8B / RFU, ZBTB11 / Fold change vs veh, ZBTB11 / RFU, TAMM41 / Fold change vs veh, TAMM41 / RFU, KIAA1704 /// LOC100996395 / Fold change vs veh, KIAA1704 /// LOC100996395 / RFU, ING1 / Fold change vs veh, ING1 / RFU, TRMT61B / Fold change vs veh, TRMT61B / RFU, FUBP3 / Fold change vs veh, FUBP3 / RFU, TP53 / Fold change vs veh, TP53 / RFU, TNKS2 / Fold change vs veh, TNKS2 / RFU, ZFP14 / Fold change vs veh, ZFP14 / RFU, ACTR2 / Fold change vs veh, ACTR2 / RFU, PPP3R1 / Fold change vs veh, PPP3R1 / RFU, PIK3R1 / Fold change vs veh, PIK3R1 / RFU, HNRNPA1 / Fold change vs veh, HNRNPA1 / RFU, RNF170 / Fold change vs veh, RNF170 / RFU, ZNF28 / Fold change vs veh, ZNF28 / RFU, RNGTT / Fold change vs veh, RNGTT / RFU, OGT / Fold change vs veh, OGT / RFU, BRD1 / Fold change vs veh, BRD1 / RFU, MARS / Fold change vs veh, MARS / RFU, ZNF655 / Fold change vs veh, ZNF655 / RFU, FAHD1 / Fold change vs veh, FAHD1 / RFU, BDP1 / Fold change vs veh, BDP1 / RFU, LRRCC1 / Fold change vs veh, LRRCC1 / RFU, ARID1A / Fold change vs veh, ARID1A / RFU, ZNF146 / Fold change vs veh, ZNF146 / RFU, ZNF330 / Fold change vs veh, ZNF330 / RFU, GPN3 / Fold change vs veh, GPN3 / RFU, C9orf123 / Fold change vs veh, C9orf123 / RFU, N4BP2L2 / Fold change vs veh, N4BP2L2 / RFU, ARFIP1 / Fold change vs veh, ARFIP1 / RFU, FAM179B / Fold change vs veh, FAM179B / RFU, BCL10 / Fold change vs veh, BCL10 / RFU, UHRF1BP1L / Fold change vs veh, UHRF1BP1L / RFU, BET1 / Fold change vs veh, BET1 / RFU, CNOT2 / Fold change vs veh, CNOT2 / RFU, ZNF268 / Fold change vs veh, ZNF268 / Fold change vs veh, ZNF507 / RFU, DGCR2 / Fold change vs veh, DGCR2 / RFU, WDSUB1 / Fold change vs veh, WDSUB1 / Fold change vs veh, HSP90B1 /// MIR3652 / RFU, ADSS / Fold change vs veh, ADSS / RFU, GK / Fold change vs veh, GK / RFU, ZNF148 / Fold change vs veh, ZNF148 / RFU, TAF9 / Fold change vs veh, TAF9 / RFU, SLC1A5 / Fold change vs veh, SLC1A5 / RFU, SLMO2 / Fold change vs veh, SLMO2 / RFU, ABCC4 / Fold change vs veh, ABCC4 / RFU, LOC101060439 /// RAP1B / Fold change vs veh, LOC101060439 /// RAP1B / RFU, RFX7 / Fold change vs veh, RFX7 / RFU, GTPBP10 / Fold change vs veh, GTPBP10 / RFU, CNEP1R1 / Fold change vs veh, CNEP1R1 / RFU, BIVM-ERCC5 /// ERCC5 / Fold change vs veh, BIVM-ERCC5 /// ERCC5 / RFU, ILF3 / Fold change vs veh, ILF3 / RFU 11762660_at / Fold change /veh 11762660_at / RFU VCAN (11757783_s_at) / Fold change /veh VCAN (11757783_s_at) / RFU DDX43 (11728927_at) / Fold change /veh DDX43 (11728927_at) / RFU KRT8 (11758188_x_at) / Fold change /veh KRT8 (11758188_x_at) / RFU NKD1 (11759106_at) / Fold change /veh NKD1 (11759106_at) / RFU SRD5A1 (11742802_a_at) / Fold change /veh SRD5A1 (11742802_a_at) / RFU TPSAB1 /// TPSB2 (11721975_s_at) / Fold change /veh TPSAB1 /// TPSB2 (11721975_s_at) / RFU GSTM3 (11746129_a_at) / Fold change /veh GSTM3 (11746129_a_at) / RFU IL23R (11737362_x_at) / Fold change /veh IL23R (11737362_x_at) / RFU TMEM51 (11727254_a_at) / Fold change /veh TMEM51 (11727254_a_at) / RFU PIWIL2 (11732686_x_at) / Fold change /veh PIWIL2 (11732686_x_at) / RFU ORM1 (11744905_x_at) / Fold change /veh ORM1 (11744905_x_at) / RFU CCDC152 (11743942_at) / Fold change /veh CCDC152 (11743942_at) / RFU ECM1 (11717891_a_at) / Fold change /veh ECM1 (11717891_a_at) / RFU IL23R (11748794_a_at) / Fold change /veh IL23R (11748794_a_at) / RFU TNFAIP8L3 (11732012_x_at) / Fold change /veh TNFAIP8L3 (11732012_x_at) / RFU MBOAT4 (11741988_at) / Fold change /veh MBOAT4 (11741988_at) / RFU 11764193_at / Fold change /veh 11764193_at / RFU TMEM53 (11763286_at) / Fold change /veh TMEM53 (11763286_at) / RFU MAGEB2 (11727129_at) / Fold change /veh MAGEB2 (11727129_at) / RFU TMEM200A (11744735_a_at) / Fold change /veh TMEM200A (11744735_a_at) / RFU CCDC152 (11751479_a_at) / Fold change /veh CCDC152 (11751479_a_at) / RFU FAM211A (11726209_a_at) / Fold change /veh FAM211A (11726209_a_at) / RFU RGS16 (11746705_a_at) / Fold change /veh RGS16 (11746705_a_at) / RFU VCAN (11755009_s_at) / Fold change /veh VCAN (11755009_s_at) / RFU RHOB (11743442_s_at) / Fold change /veh RHOB (11743442_s_at) / RFU RGS16 (11720943_a_at) / Fold change /veh RGS16 (11720943_a_at) / RFU RGS16 (11720944_at) / Fold change /veh RGS16 (11720944_at) / RFU, VPS4B / Fold change vs veh, VPS4B / RFU, CREB1 / Fold change vs veh, CREB1 / RFU, DNAJC13 / Fold change vs veh, DNAJC13 / RFU, GNAQ / Fold change vs veh, GNAQ / RFU, CDK5R1 / Fold change vs veh, CDK5R1 / RFU, ZRANB3 / Fold change vs veh, ZRANB3 / RFU, CUL4A / Fold change vs veh, CUL4A / RFU, CCNY / Fold change vs veh, CCNY / RFU, UFL1 / Fold change vs veh, UFL1 / RFU, COG3 / Fold change vs veh, COG3 / RFU, DIAPH2 / Fold change vs veh, DIAPH2 / RFU, SKA2 / Fold change vs veh, SKA2 / RFU, AFF3 / Fold change vs veh, AFF3 / RFU, LMF1 / Fold change vs veh, LMF1 / RFU, IPO11 / Fold change vs veh, IPO11 / RFU, DFFB / Fold change vs veh, DFFB / RFU, FOXP1 / Fold change vs veh, FOXP1 / RFU, CARD8 / Fold change vs veh, CARD8 / RFU, STRN3 / Fold change vs veh, STRN3 / RFU, ADK / Fold change vs veh, ADK / RFU, RASSF2 / Fold change vs veh, RASSF2 / RFU, WIPF1 / Fold change vs veh, WIPF1 / RFU, LARP1B / Fold change vs veh, LARP1B / RFU, RASA1 / Fold change vs veh, RASA1 / RFU, RB1 / Fold change vs veh, RB1 / RFU, PPFIA1 / Fold change vs veh, PPFIA1 / RFU, MAT2A / Fold change vs veh, MAT2A / RFU, CCT5 / Fold change vs veh, CCT5 / RFU, WDR92 / Fold change vs veh, WDR92 / RFU, CUX1 / Fold change vs veh, CUX1 / RFU, TTC7A / Fold change vs veh, TTC7A / RFU, TMEM135 / Fold change vs veh, TMEM135 / RFU, DEPTOR / Fold change vs veh, DEPTOR / RFU, CPM / Fold change vs veh, CPM / RFU, DNAJB6 / Fold change vs veh, DNAJB6 / RFU, CACNA2D3 / Fold change vs veh, CACNA2D3 / RFU, DTX4 / Fold change vs veh, DTX4 / RFU, TFCP2 / Fold change vs veh, TFCP2 / RFU, GMCL1 /// GMCL1P1 / Fold change vs veh, GMCL1 /// GMCL1P1 / RFU, AEBP2 / Fold change vs veh, AEBP2 / RFU, SNHG1 /// SNORD22 /// SNORD25 /// SNORD26 /// SNORD27 /// SNORD28 /// SNORD29 /// SNORD31 / Fold change vs veh, SNHG1 /// SNORD22 /// SNORD25 /// SNORD26 /// SNORD27 /// SNORD28 /// SNORD29 /// SNORD31 / Fold change (Aza/veh), C12orf56 (ProbeSet 11735607_a_at) / Fold change (ACY-1035/veh), C12orf56 (ProbeSet 11735607_a_at) / Fold change (Aza/veh), FGFR1OP (ProbeSet 11751329_s_at) / Fold change (ACY-1035/veh), FGFR1OP (ProbeSet 11751329_s_at) / Fold change (Aza/veh), VPS36 (ProbeSet 11739960_a_at) / Fold change (ACY-1035/veh), VPS36 (ProbeSet 11739960_a_at) / RFU SYPL1 (11715823_x_at) / Fold change /veh SYPL1 (11715823_x_at) / RFU IGFBP7 (11715501_s_at) / Fold change /veh IGFBP7 (11715501_s_at) / RFU REEP3 (11722064_at) / Fold change /veh REEP3 (11722064_at) / RFU IGLL1 (11728026_x_at) / Fold change /veh IGLL1 (11728026_x_at): dose or concentration left out as unconfirmed
Conditions: MV-4-11 cells, 48 hours

Question: Which “RFU TMPRSS6 (11731388_a_at)” value does the source give for Nc1ncn([C@@H]2O[C@H](CO)[C@@H](O)[C@H]2O)c(=O)n1 [azacitidine] here?
Answer: The value was 68.82 RFU.
